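GI50 is the concentration that inhibits growth by half. TGI is the concentration that stops growth completely.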
Key:
Assay in all cases: inhibition of tumour cell growth, NCI panel, 384-well format
LOX IMVI melanoma = test system: LOX IMVI melanoma
K-562 leukemia = test system: K-562 leukemia
SK-MEL-5 melanoma = test system: SK-MEL-5 melanoma
HCC-2998 colon = test system: HCC-2998 colon
PC-3 prostate = test system: PC-3 prostate
MDA-MB-435 melanoma = test system: MDA-MB-435 melanoma
U251 glioblastoma = test system: U251 glioblastoma
MCF7 breast = test system: MCF7 breast
HT29 colon = test system: HT29 colon
SNB-19 CNS = test system: SNB-19 CNS
NCI-H460 NSCLC = test system: NCI-H460 NSCLC
COLO 205 colon = test system: COLO 205 colon
HOP-62 NSCLC = test system: HOP-62 NSCLC
HL-60(TB) leukemia = test system: HL-60(TB) leukemia
MALME-3M melanoma = test system: MALME-3M melanoma
HCT-15 colon = test system: HCT-15 colon
M14 melanoma = test system: M14 melanoma
NCI-H23 lung = test system: NCI-H23 lung
SF-539 CNS = test system: SF-539 CNS
CAKI-1 renal = test system: CAKI-1 renal
OVCAR-5 ovarian = test system: OVCAR-5 ovarian
SK-MEL-2 melanoma = test system: SK-MEL-2 melanoma
A549 NSCLC = test system: A549 NSCLC
SK-MEL-28 melanoma = test system: SK-MEL-28 melanoma
BT-549 breast = test system: BT-549 breast
IGROV1 ovarian = test system: IGROV1 ovarian
HCT-116 colon = test system: HCT-116 colon
A498 renal = test system: A498 renal
NCI-H226 lung = test system: NCI-H226 lung
SF-295 CNS = test system: SF-295 CNS
SR leukemia = test system: SR leukemia
MDA-MB-231 breast = test system: MDA-MB-231 breast
MDA-MB-468 breast = test system: MDA-MB-468 breast
786-0 renal = test system: 786-0 renal
OVCAR-4 ovarian = test system: OVCAR-4 ovarian
SW-620 colon = test system: SW-620 colon
DU-145 prostate = test system: DU-145 prostate
SF-268 CNS = test system: SF-268 CNS
NCI/ADR-RES ovarian = test system: NCI/ADR-RES ovarian
SK-OV-3 ovarian = test system: SK-OV-3 ovarian
T-47D breast = test system: T-47D breast
KM12 colon = test system: KM12 colon
TK-10 renal = test system: TK-10 renal
OVCAR-8 ovarian = test system: OVCAR-8 ovarian
SN12C renal = test system: SN12C renal
RXF 393 renal = test system: RXF 393 renal
HOP-92 NSCLC = test system: HOP-92 NSCLC
OVCAR-3 ovarian = test system: OVCAR-3 ovarian
UACC-62 melanoma = test system: UACC-62 melanoma
UO-31 renal = test system: UO-31 renal
UACC-257 melanoma = test system: UACC-257 melanoma
CCRF-CEM leukemia = test system: CCRF-CEM leukemia
ACHN renal = test system: ACHN renal
NCI-H522 lung = test system: NCI-H522 lung
NCI-H322M lung = test system: NCI-H322M lung
MOLT-4 leukemia = test system: MOLT-4 leukemia
RPMI-8226 leukemia = test system: RPMI-8226 leukemia

C=C(F)C(=O)N1CCN(c2nc(OC[C@@H]3CCCN3C)nc3c2CCN(c2cccc4cccc(Cl)c24)C3)C[C@@H]1CC#N
GI50 (LOX IMVI melanoma): 1.1 µM
TGI (LOX IMVI melanoma): 2.31 µM
GI50 (K-562 leukemia): 0.253 µM
TGI (K-562 leukemia): 1.32 µM
GI50 (SK-MEL-5 melanoma): 0.564 µM
TGI (SK-MEL-5 melanoma): 1.81 µM
GI50 (HCC-2998 colon): 1.08 µM
TGI (HCC-2998 colon): 2.28 µM
GI50 (PC-3 prostate): 0.723 µM
TGI (PC-3 prostate): 2.01 µM
GI50 (MDA-MB-435 melanoma): 1.27 µM
TGI (MDA-MB-435 melanoma): 2.55 µM
GI50 (U251 glioblastoma): 0.285 µM
TGI (U251 glioblastoma): 0.994 µM
GI50 (MCF7 breast): 1.19 µM
TGI (MCF7 breast): 2.43 µM
GI50 (HT29 colon): 0.652 µM
TGI (HT29 colon): 1.93 µM
GI50 (SNB-19 CNS): 0.745 µM
TGI (SNB-19 CNS): 1.96 µM
GI50 (NCI-H460 NSCLC): 0.414 µM
TGI (NCI-H460 NSCLC): 1.39 µM
GI50 (COLO 205 colon): 0.564 µM
TGI (COLO 205 colon): 1.74 µM
GI50 (HOP-62 NSCLC): < 0.01 µM
TGI (HOP-62 NSCLC): 1.39 µM
GI50 (HL-60(TB) leukemia): 0.637 µM
TGI (HL-60(TB) leukemia): 1.82 µM
GI50 (MALME-3M melanoma): 1.33 µM
TGI (MALME-3M melanoma): 2.61 µM
GI50 (HCT-15 colon): 0.568 µM
TGI (HCT-15 colon): 1.71 µM
GI50 (M14 melanoma): 0.692 µM
TGI (M14 melanoma): 1.92 µM
GI50 (NCI-H23 lung): < 0.01 µM
GI50 (SF-539 CNS): 0.472 µM
TGI (SF-539 CNS): 1.52 µM
GI50 (CAKI-1 renal): 0.499 µM
TGI (CAKI-1 renal): 1.69 µM
GI50 (OVCAR-5 ovarian): 0.386 µM
TGI (OVCAR-5 ovarian): 1.19 µM
GI50 (SK-MEL-2 melanoma): 0.484 µM
TGI (SK-MEL-2 melanoma): 1.63 µM
GI50 (A549 NSCLC): 0.561 µM
TGI (A549 NSCLC): 1.84 µM
GI50 (SK-MEL-28 melanoma): 1.13 µM
TGI (SK-MEL-28 melanoma): 2.36 µM
GI50 (BT-549 breast): 1.21 µM
TGI (BT-549 breast): 2.45 µM
GI50 (IGROV1 ovarian): 1.29 µM
TGI (IGROV1 ovarian): 2.61 µM
GI50 (HCT-116 colon): 0.326 µM
TGI (HCT-116 colon): 1.35 µM
GI50 (A498 renal): 0.471 µM
TGI (A498 renal): 1.59 µM
GI50 (NCI-H226 lung): 0.915 µM
TGI (NCI-H226 lung): 2.14 µM
GI50 (SF-295 CNS): 1.48 µM
TGI (SF-295 CNS): 2.81 µM
GI50 (SR leukemia): 0.134 µM
TGI (SR leukemia): 0.512 µM
GI50 (MDA-MB-231 breast): 0.417 µM
TGI (MDA-MB-231 breast): 1.42 µM
GI50 (MDA-MB-468 breast): 0.275 µM
TGI (MDA-MB-468 breast): 1.11 µM
GI50 ([…]-0 renal): 0.509 µM
TGI (786-0 renal): 1.78 µM
GI50 (OVCAR-4 ovarian): 0.853 µM
TGI (OVCAR-4 ovarian): 2.12 µM
GI50 (SW-620 colon): 1.12 µM
TGI (SW-620 colon): 2.35 µM
GI50 (DU-145 prostate): 1.21 µM
TGI (DU-145 prostate): 2.48 µM
GI50 (SF-268 CNS): 0.542 µM
TGI (SF-268 CNS): 1.66 µM
GI50 (NCI/ADR-RES ovarian): 0.411 µM
TGI (NCI/ADR-RES ovarian): 1.44 µM
GI50 (SK-OV-3 ovarian): 1.07 µM
TGI (SK-OV-3 ovarian): 2.28 µM
GI50 (T-47D breast): 0.43 µM
TGI (T-47D breast): 1.9 µM
GI50 (KM12 colon): 0.561 µM
TGI (KM12 colon): 1.75 µM
GI50 (TK-10 renal): 0.925 µM
TGI (TK-10 renal): 2.16 µM
GI50 (OVCAR-8 ovarian): 0.405 µM
TGI (OVCAR-8 ovarian): 1.36 µM
GI50 (SN12C renal): 1.2 µM
TGI (SN12C renal): 2.44 µM
GI50 (RXF 393 renal): 0.379 µM
TGI (RXF 393 renal): 1.56 µM
GI50 (HOP-92 NSCLC): 0.341 µM
TGI (HOP-92 NSCLC): 0.931 µM
GI50 (OVCAR-3 ovarian): 0.657 µM
TGI (OVCAR-3 ovarian): 1.88 µM
GI50 (UACC-62 melanoma): 0.692 µM
TGI (UACC-62 melanoma): 1.91 µM
GI50 (UO-31 renal): 1.15 µM
TGI (UO-31 renal): 2.37 µM
GI50 (UACC-257 melanoma): 0.749 µM
TGI (UACC-257 melanoma): 2.02 µM
GI50 (CCRF-CEM leukemia): 0.351 µM
TGI (CCRF-CEM leukemia): 1.34 µM
GI50 (ACHN renal): 0.992 µM
TGI (ACHN renal): 2.16 µM
GI50 (NCI-H522 lung): 0.255 µM
TGI (NCI-H522 lung): 0.861 µM
GI50 (NCI-H322M lung): 1.27 µM
TGI (NCI-H322M lung): 2.59 µM
GI50 (MOLT-4 leukemia): 0.182 µM
TGI (MOLT-4 leukemia): 0.384 µM
GI50 (RPMI-8226 leukemia): 0.165 µM
TGI (RPMI-8226 leukemia): 0.491 µM
